Assay results as given in PubChem BioAssay (NCI).
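GI50: concentration for 50% inhibition of growth. The concentration for full growth arrest is given as TGI.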

How the values were obtained:
Assay in all cases: NCI tumour cell line growth inhibition, 384-well format
SF-268 CNS = system: SF-268 CNS
HCC-2998 colon = system: HCC-2998 colon
UACC-257 melanoma = system: UACC-257 melanoma
MDA-MB-468 breast = system: MDA-MB-468 breast
NCI-H23 lung = system: NCI-H23 lung
MDA-MB-435 melanoma = system: MDA-MB-435 melanoma
786-0 renal = system: 786-0 renal
HL-60(TB) leukemia = system: HL-60(TB) leukemia
TK-10 renal = system: TK-10 renal
RPMI-8226 leukemia = system: RPMI-8226 leukemia
BT-549 breast = system: BT-549 breast
MDA-MB-231 breast = system: MDA-MB-231 breast
A549 NSCLC = system: A549 NSCLC
OVCAR-4 ovarian = system: OVCAR-4 ovarian
HCT-15 colon = system: HCT-15 colon
SNB-19 CNS = system: SNB-19 CNS
NCI-H460 NSCLC = system: NCI-H460 NSCLC
COLO 205 colon = system: COLO 205 colon
HCT-116 colon = system: HCT-116 colon
SNB-75 CNS = system: SNB-75 CNS
M14 melanoma = system: M14 melanoma
CCRF-CEM leukemia = system: CCRF-CEM leukemia
SW-620 colon = system: SW-620 colon
HT29 colon = system: HT29 colon
SK-OV-3 ovarian = system: SK-OV-3 ovarian
NCI-H522 lung = system: NCI-H522 lung
ACHN renal = system: ACHN renal
SK-MEL-5 melanoma = system: SK-MEL-5 melanoma
HOP-92 NSCLC = system: HOP-92 NSCLC
OVCAR-3 ovarian = system: OVCAR-3 ovarian
EKVX NSCLC = system: EKVX NSCLC
SF-295 CNS = system: SF-295 CNS
UO-31 renal = system: UO-31 renal
SN12C renal = system: SN12C renal
LOX IMVI melanoma = system: LOX IMVI melanoma
NCI-H226 lung = system: NCI-H226 lung
HOP-62 NSCLC = system: HOP-62 NSCLC
OVCAR-8 ovarian = system: OVCAR-8 ovarian
MOLT-4 leukemia = system: MOLT-4 leukemia
SK-MEL-28 melanoma = system: SK-MEL-28 melanoma
DU-145 prostate = system: DU-145 prostate
OVCAR-5 ovarian = system: OVCAR-5 ovarian
UACC-62 melanoma = system: UACC-62 melanoma
A498 renal = system: A498 renal
MALME-3M melanoma = system: MALME-3M melanoma
IGROV1 ovarian = system: IGROV1 ovarian
KM12 colon = system: KM12 colon
MCF7 breast = system: MCF7 breast
NCI-H322M lung = system: NCI-H322M lung
HS 578T breast = system: HS 578T breast
SF-539 CNS = system: SF-539 CNS
CAKI-1 renal = system: CAKI-1 renal
T-47D breast = system: T-47D breast
SR leukemia = system: SR leukemia
PC-3 prostate = system: PC-3 prostate
RXF 393 renal = system: RXF 393 renal
U251 glioblastoma = system: U251 glioblastoma
NCI/ADR-RES ovarian = system: NCI/ADR-RES ovarian

CN1CCN(c2ccc(Nc3ncc4cc5n(c4n3)C3(CCCCC3)CNC5=O)nc2)CC1
GI50 (SF-268 CNS): 1.81 µM
TGI (SF-268 CNS): 4.14 µM
GI50 (HCC-2998 colon): 2.35 µM
TGI (HCC-2998 colon): 5.48 µM
GI50 (UACC-257 melanoma): 5.59 µM
TGI (UACC-257 melanoma): 17.4 µM
GI50 (MDA-MB-468 breast): 4.26 µM
TGI (MDA-MB-468 breast): 10.8 µM
GI50 (NCI-H23 lung): 1.81 µM
TGI (NCI-H23 lung): 3.83 µM
GI50 (MDA-MB-435 melanoma): 4.34 µM
TGI (MDA-MB-435 melanoma): 24.8 µM
GI50 (786-0 renal): 2.34 µM
TGI (786-0 renal): > 100 µM
GI50 (HL-60(TB) leukemia): 0.139 µM
TGI (HL-60(TB) leukemia): 1.77 µM
GI50 (TK-10 renal): 2.94 µM
TGI (TK-10 renal): 15.3 µM
GI50 (RPMI-8226 leukemia): 0.245 µM
TGI (RPMI-8226 leukemia): 1.5 µM
GI50 (BT-549 breast): 2 µM
TGI (BT-549 breast): 3.9 µM
GI50 (MDA-MB-231 breast): 0.796 µM
TGI (MDA-MB-231 breast): 3.23 µM
GI50 (A549 NSCLC): 1.65 µM
TGI (A549 NSCLC): 9.44 µM
GI50 (OVCAR-4 ovarian): 5.31 µM
TGI (OVCAR-4 ovarian): 14.6 µM
GI50 (HCT-15 colon): 2.14 µM
TGI (HCT-15 colon): 9.25 µM
GI50 (SNB-19 CNS): 3.99 µM
TGI (SNB-19 CNS): > 52.6 µM
GI50 (NCI-H460 NSCLC): 1.33 µM
TGI (NCI-H460 NSCLC): 3.74 µM
GI50 (COLO 205 colon): 0.844 µM
TGI (COLO 205 colon): 5.67 µM
GI50 (HCT-116 colon): 1.41 µM
TGI (HCT-116 colon): 5.38 µM
GI50 (SNB-75 CNS): 1.89 µM
TGI (SNB-75 CNS): 4.35 µM
GI50 (M14 melanoma): 1.48 µM
TGI (M14 melanoma): 4.85 µM
GI50 (CCRF-CEM leukemia): 0.399 µM
TGI (CCRF-CEM leukemia): 1.81 µM
GI50 (SW-620 colon): 1.09 µM
TGI (SW-620 colon): 10.2 µM
GI50 (HT29 colon): 1.46 µM
TGI (HT29 colon): 12.1 µM
GI50 (SK-OV-3 ovarian): 5.23 µM
TGI (SK-OV-3 ovarian): > 42.6 µM
GI50 (NCI-H522 lung): 7.65 µM
TGI (NCI-H522 lung): 18.9 µM
GI50 (ACHN renal): 1.63 µM
TGI (ACHN renal): > 100 µM
GI50 (SK-MEL-5 melanoma): 2.39 µM
TGI (SK-MEL-5 melanoma): 12.7 µM
GI50 (HOP-92 NSCLC): 2.28 µM
TGI (HOP-92 NSCLC): > 24.2 µM
GI50 (OVCAR-3 ovarian): 3.05 µM
TGI (OVCAR-3 ovarian): 7.81 µM
GI50 (EKVX NSCLC): 3.11 µM
TGI (EKVX NSCLC): 11 µM
GI50 (SF-295 CNS): 1.75 µM
TGI (SF-295 CNS): 7.59 µM
GI50 (UO-31 renal): 1.36 µM
TGI (UO-31 renal): > 23.3 µM
GI50 (SN12C renal): 1.83 µM
TGI (SN12C renal): 7.87 µM
GI50 (LOX IMVI melanoma): 0.993 µM
TGI (LOX IMVI melanoma): 3.02 µM
GI50 (NCI-H226 lung): 0.362 µM
TGI (NCI-H226 lung): 4.23 µM
GI50 (HOP-62 NSCLC): 1.99 µM
TGI (HOP-62 NSCLC): 6.75 µM
GI50 (OVCAR-8 ovarian): 3.57 µM
TGI (OVCAR-8 ovarian): 10.5 µM
GI50 (MOLT-4 leukemia): 0.116 µM
TGI (MOLT-4 leukemia): 0.931 µM
GI50 (SK-MEL-28 melanoma): 2.47 µM
TGI (SK-MEL-28 melanoma): 14.5 µM
GI50 (DU-145 prostate): 3.22 µM
TGI (DU-145 prostate): 9.41 µM
GI50 (OVCAR-5 ovarian): 2.04 µM
TGI (OVCAR-5 ovarian): > 100 µM
GI50 (UACC-62 melanoma): 1.69 µM
TGI (UACC-62 melanoma): 7.78 µM
GI50 (A498 renal): 3.03 µM
TGI (A498 renal): 14.5 µM
GI50 (MALME-3M melanoma): 1.45 µM
TGI (MALME-3M melanoma): 4.22 µM
GI50 (IGROV1 ovarian): 4.12 µM
TGI (IGROV1 ovarian): > 100 µM
GI50 (KM12 colon): 1.34 µM
TGI (KM12 colon): 14.3 µM
GI50 (MCF7 breast): 1.39 µM
TGI (MCF7 breast): 9.19 µM
GI50 (NCI-H322M lung): 2.17 µM
TGI (NCI-H322M lung): 7.5 µM
GI50 (HS 578T breast): 2.09 µM
TGI (HS 578T breast): 4.09 µM
GI50 (SF-539 CNS): 1.75 µM
TGI (SF-539 CNS): 3.44 µM
GI50 (CAKI-1 renal): 1.21 µM
TGI (CAKI-1 renal): > 40.5 µM
GI50 (T-47D breast): 7.74 µM
TGI (T-47D breast): 23.3 µM
GI50 (SR leukemia): 0.0408 µM
TGI (SR leukemia): 0.196 µM
GI50 (PC-3 prostate): 2.71 µM
TGI (PC-3 prostate): > 39 µM
GI50 (RXF 393 renal): 2.15 µM
TGI (RXF 393 renal): 4.02 µM
GI50 (U251 glioblastoma): 3.14 µM
TGI (U251 glioblastoma): 15.2 µM
GI50 (NCI/ADR-RES ovarian): 8.49 µM
TGI (NCI/ADR-RES ovarian): 23.8 µM
